Measurements taken from a melting point compilation (Tetko et al.; mined from patent text by program, amines drawn as free bases though some values may be those of a salt).

First: OC1(c2ccccc2)CNN=C1c1ccc(Cl)cc1 (centres undefined)
Second: O=C1CC(c2ccccc2)c2ccc(Cl)cc21 (centres undefined)
The melting point of the first is higher: 195 to 196 °C for the first, 84 to 92 °C for the second.

Compared with `COC(=O)CC(c1ccc(OC)c(OC)c1)N1C(=O)C2C=CCCC2C1=O` (centres undefined), `CCOC(Cn1cc[nH]c1=O)c1ccc(OC)c(OC)c1` (centres undefined) is higher in melting point: 100 to 102 °C for the first, 134 °C for the second.

First: CCCC12C=CC=CC1C(=O)N(c1nc(C#N)c(C#N)[nH]1)C2=O (centres undefined)
Second: N#Cc1ccc2ccnc(N)c2c1
The melting point of the first is lower: 134 to 135 °C for the first, 183 to 186 °C for the second.

First: N#CCc1ccc2c(c1)Cc1cccnc1O2
Second: N#Cc1ccccc1-n1nnc2cccnc21
The melting point of the first is lower: 166 to 167 °C for the first, 177 to 179 °C for the second.

First: Cc1ccccc1-n1c(C=Cc2ccccc2F)nc2ccsc2c1=O
Second: O=C1Cc2c(ccc3ccccc23)C(c2ccccc2F)N1 (centres undefined)
The melting point of the first is lower: 220 to 221 °C for the first, 259 to 261 °C for the second.

First: CSc1c(C)c(-c2ncc(Cl)cc2F)nn1C
Second: Cc1cc2ncc(C(=O)O)nc2cc1C
The melting point of the first is lower: 61 to 64 °C for the first, 214 to 216 °C for the second.

Compared with `O=S(=O)(c1ccccc1)c1ccc(/C=C/C(O)(C(F)F)C(F)F)cc1`, `COc1ccc(N2C(=O)C(=O)N(c3ccccc3)C2=O)cc1` is higher in melting point: 123 to 124 °C for the first, 129 to 131 °C for the second.

First: O=C(Nc1ccc2c(c1)CCC2)OCc1ccccc1
Second: Fc1ccc(NC(=S)NN2CC=C(c3ccccc3)CC2)cc1
The melting point of the first is lower: 56 to 59 °C for the first, 192 to 194 °C for the second.

First: COc1cc2[nH]c(=O)n(CCCS)c(=O)c2cc1OC
Second: COc1cc2c(cc1OC)-c1nccc3cccc(c13)C2=O
The melting point of the first is lower: 236 °C for the first, 250 °C for the second.

First: CS(=O)(=O)Nc1ccc(NS(C)(=O)=O)c(S)c1
Second: Cc1c(Cl)cccc1S(=O)(=O)Nc1ccc2onc(C)c2c1
The melting point of the first is higher: 174 to 176 °C for the first, 163 °C for the second.

Compared with `COCCc1nc2c(N)nc3ccccc3c2n1CCCNS(=O)(=O)c1ccc(C)cc1`, `COCc1nc(-c2ccc(C(F)(F)F)cc2)ncc1COc1ccc(OC(C)(C)C(=O)O)c(C)c1` is lower in melting point: 189 to 191 °C for the first, 120 to 121 °C for the second.

First: CC(C)CN1N=Cc2cc(S(N)(=O)=O)sc2S1(=O)=O
Second: CC(C)N(C(C)C)S(=O)(=O)NC(=O)c1nsc2ccc(-n3c(=O)cc(C(F)(F)F)n(C)c3=O)cc12
The melting point of the first is lower: 130 to 132 °C for the first, 214 °C for the second.

First: Cc1ccc(C(=O)c2c(C)cc(C)cc2OCC(O)CNC(C)(C)C)cc1 (centres undefined)
Second: Cc1ccc(C(=O)N2CCCC(c3ccc(Cl)cc3)=N2)cc1
The melting point of the first is lower: 116 to 118 °C for the first, 163 to 166 °C for the second.

First: CCOC(=O)C(O)(CC(=O)c1ccc(-n2ccnc2)cc1)C(=O)OCC
Second: O=C(O)CCC(=O)c1ccc(NC(=O)c2ccccc2F)cc1
The melting point of the first is lower: 155 to 156 °C for the first, 191 to 193 °C for the second.

First: OC1Cc2ccccc2Sc2cc(Cl)c(F)cc21 (centres undefined)
Second: Cn1c(=O)nc(-c2ccccc2Cl)c2cc(Cl)sc21
The melting point of the first is lower: 86 to 87 °C for the first, 164 to 166 °C for the second.

First: CC(C)c1nc2cc(NC(=O)c3c(C(=O)N4CC(F)C4)cnn3C)ccn2n1
Second: O=C(O)c1ccc(C(=O)Nc2cccc([N+](=O)[O-])c2)cc1
The melting point of the first is lower: 226 to 227 °C for the first, 319 °C for the second.

First: COc1cc2c(c(OC(=O)Cc3ccccc3)c1OC)=NC(=O)C(=O)N=2
Second: COc1cc(C=CC(=O)Nc2c(C)nc3c(C)cc(C)cc3c2-c2ccccc2Cl)cc(OC)c1OC(C)=O
The melting point of the first is higher: 298 to 300 °C for the first, 225 to 226 °C for the second.

Compared with `N#Cc1ccc(Oc2cc3c(cc2Cl)C=C(C(=O)O)C(C(F)(F)F)O3)cc1` (centres undefined), `Nc1cc(Oc2ccc(Oc3cc(N)cc(C(F)(F)F)c3)cc2)cc(C(F)(F)F)c1` is lower in melting point: 212 to 216 °C for the first, 157 to 158 °C for the second.

First: COC(=O)C(=O)c1cc(F)c(OCCOc2ccc3ccccc3c2)c(F)c1
Second: CCNC(=O)n1cc(F)c(NC(=O)NCc2ccccc2OC)nc1=O
The melting point of the first is lower: 114 to 115 °C for the first, 248 to 250 °C for the second.

First: O=C(c1ccc(Cl)cc1)c1c(N2C(=O)c3ccccc3C2=O)sc(-c2ccccc2)c1CN1CCCCC1
Second: CCOC(=O)N1CCC(=C2c3ccccc3C=Cc3ccccc32)CC1
The melting point of the first is higher: 187 to 189 °C for the first, 123 to 124 °C for the second.

Compared with `CNc1nc(C)c(-c2cccnc2)s1`, `c1cncc(-c2nc(COc3ccc(CCCn4ccnc4)cc3)cs2)c1` is lower in melting point: 152 to 153 °C for the first, 67 to 68 °C for the second.

First: COc1ccc2nc(COc3ccc(CC4SC(=O)N(C(c5ccccc5)(c5ccccc5)c5ccccc5)C4=O)cc3)n(C)c2n1 (centres undefined)
Second: CCc1cccc(Sc2ccccc2)c1NC(=O)CC1c2ccccc2Oc2ccccc21
The melting point of the first is lower: 80 to 85 °C for the first, 237 to 239 °C for the second.

First: Fc1ccc2c(c1)CC[C@H](CNCCNc1ncccn1)O2
Second: OCc1cccc2nc(-c3ccncc3)oc12
The melting point of the first is lower: 103 °C for the first, 146 to 147 °C for the second.

Compared with `CN(C)C(=O)C(C)(C)c1cc(C#N)ccc1O`, `CC(=O)c1ccc2c(c1)SC(C)(C)S2` is lower in melting point: 146 to 148 °C for the first, 75 to 76 °C for the second.

First: OC(c1ccc(F)cc1)c1cc(Br)cc(Br)c1 (centres undefined)
Second: Oc1cc(O)cc(CN/C=C2\CN=Cc3ccc(Br)cc32)c1
The melting point of the first is lower: 92 to 93 °C for the first, 263 to 264 °C for the second.

Compared with `CN1CCc2c(Cl)c(O)c(O)c(Sc3ccccc3)c2CC1`, `Cc1noc(NC(=O)N2CCC(c3nc(-c4ccccc4)cs3)CC2)c1C` is lower in melting point: 173 to 174 °C for the first, 156 to 157 °C for the second.

First: CC1(C)Sc2ccccc2C(Cl)=C1C=O
Second: NC(=O)NS(=O)(=O)c1ccccc1Cl
The melting point of the first is lower: 49 to 52 °C for the first, 160 to 163 °C for the second.

First: O=C(Nc1ccc(-n2nc(C(F)(F)F)cc2C(F)(F)F)cc1)c1c(F)ccc([N+](=O)[O-])c1F
Second: Cc1nn(-c2ccc(F)cc2)cc1C(=O)N(CC(=O)O)c1ccc(N2CCC(O)CC2)c(C#N)c1
The melting point of the first is higher: 187 to 189 °C for the first, 124 to 125 °C for the second.

`O=C(Nc1nc(OCc2ccc(F)cc2)ncc1F)c1snc(Cl)c1Cl` and `O[C@H](COc1cccc2[nH]ccc12)CN1CC=C(c2c[nH]c3c(Cl)cccc23)CC1` cannot be ordered by melting point: 87 to 90 °C for the first, 85 to 90 °C for the second.

First: COCc1c(C(=O)O)ncc2[nH]c3cccc(CN4CCOCC4)c3c12
Second: CN(C)S(=O)(=O)c1cc(C(=O)O)cc(N2CCCC2)c1Oc1ccccc1
The melting point of the first is higher: 253 to 255 °C for the first, 214 to 215 °C for the second.

First: O=C1C2CCC(N1c1cccs1)n1c(=O)n(-c3ccccc3)c(=O)n12 (centres undefined)
Second: Cc1ccc(-n2c(-c3ccccc3)ccc2-c2ccccc2)cc1
The melting point of the first is higher: 238 to 244 °C for the first, 207 to 208 °C for the second.

Compared with `CCCNC(=O)C(C)NC(=O)C(NC(=O)OCc1ccccc1)C(Cc1ccccc1)C(=O)O` (centres undefined), `CCCCCCCCCCCCOc1cc(O)c(C(=O)c2ccccc2)cc1Cl` is lower in melting point: 169 to 171 °C for the first, 75 to 77 °C for the second.

First: CC(C)(C)c1cc(-n2nc3c(Br)ccc(Br)c3n2)c(O)c(C(C)(C)C)c1
Second: CC(CN1CCCCC1)Nc1ccnc2cc(Cl)ccc12 (racemic)
The melting point of the first is higher: 244 to 246 °C for the first, 168 to 171 °C for the second.

First: CN(c1cccc2c(Cl)c(-c3nccs3)[nH]c12)S(=O)(=O)c1cccs1
Second: Nc1ccc(C(=O)O)c([N+](=O)[O-])c1
The melting point of the first is lower: 222 to 223 °C for the first, 230 °C for the second.

First: O=C(O)COc1c(Cl)cc(F)cc1Cl
Second: Cc1c(OCC(F)(F)C(F)F)ccnc1CO
The melting point of the first is higher: 155 to 158 °C for the first, 67 to 68 °C for the second.

Compared with `CCCCCCCCCCCCCCCCCCOc1cc(N)cc(N(CC(=O)O)CC(=O)O)c1`, `COC(=O)CCC1(CCC(=O)OC)CCC(=O)N1` is lower in melting point: 185 to 195 °C for the first, 70 to 73 °C for the second.

First: OCC1Cc2c(F)cccc2OC1CO (centres undefined)
Second: Cc1cn(N)c(=O)n1C
The melting point of the first is lower: 99 to 101 °C for the first, 115 to 119 °C for the second.
